Patent US12516063B2, “Substituted 7-(methylamino)pyrazolo[1,5-a]pyrimidine-3-carboxamide derivatives for treating autoimmune diseases” (Eli Lilly and Company, priority 2020, dated 2026)

Tests used:
[1] = test system: IFNα signaling through pSTAT1 in TF1 cells; assay: Inhibition of IFNα Signaling Through pSTAT1 in TF1 Cells; assay type: cell-based; settings: Homo sapiens, TF-1, 1 hour pre-incubation, 10 ng/mL IFNα2 for 20 minutes, GeoMetric mean (SEM), read-out: IC50 (inhibition of p-Stat1 (Tyr701))
Procedure: TF1 cells (ATCC, CL-2003) are grown in RPMI 1640 (GIBCO) supplemented with 10% dialyzed FBS, 0.1 mg/mL Ampicillin and 2 ng/mL granulocyte macrophage colony stimulating factor. TF1 cells (100 K per well) are seeded in a 96-well poly-D-lysine coated plates in serum-free DMEM and incubated overnight at 37° C. under 5% CO2. Example 1 is serially diluted in DMSO, added to the cells, and incubated at 37° C. for 1 hour. Cells are then stimulated with 10 ng/mL IFNα2 at 37° C. for 20 minutes. After removing the medium, the cells are lysed in buffer containing Halt protease and phosphatase inhibitor cocktail (Thermo Scientific #78441) at ambient temperature for 30 minutes. The amount of p-Stat1 (Tyr701) is quantified as light emission at 615 nm using the AlphaLISA SureFire Ultra p-Stat1 (Tyr701) assay kit (Perkin Elmer #ALSU-PST1-A50K) following the vendor's recommended protocol.

[2] = test system: IL-23 signaling (STAT3 phosphorylation) in Kit225 cells; assay: IL23 pSTAT3 AlphaLISA Assay; assay type: cell-based; settings: 1 hour pre-incubation, IL23 25 ng/mL for 30 minutes, GeoMetric mean (SEM), read-out: relative IC50 (IL23 pSTAT3 AlphaLISA)
Procedure: IL2-dependent Kit225 cells (University of Texas MD Anderson Cancer Center) expressing endogenous IL23 receptors are stably transduced with the Lenti STAT3 Reporter linked to firefly luciferase (SABiosciences CLS-6028L). These cells are used to monitor TYK2 activity by quantifying gene expression caused by STAT3 phosphorylation following induction by IL23 in the presence of IL2 using AlphaLISA technology (TGR Biosciences ALSU-TST3-A50K). The cells are grown in RPMI 1640 (Gibco 22400) supplemented with 10% FBS (Invitrogen 10082), 1×Pen/Strep (Gibco 15140-122), 200 ng/ml Puromycin (Sigma P9620), and fresh 10 ng/ml recombinant human IL2 (R&D Systems 202-IL-50).
For assay preparation, cells are dispensed into Biocoat black poly-d-lysine coated clear bottom 384-well plates (Becton Dickinson Bio-Coat 35-4640) in DMEM (Sigma D5796) at 300,000 cells/well and allowed to incubate overnight at 37° C. Compounds solubilized in DMSO are serially diluted 1:3 to produce a 10-point concentration response curve (final DMSO=0.1%). Cells are pre-incubated with Example 1 for 1 hour at 37° C., then stimulated with IL23 (25 ng/mL final) for 30 minutes. […] The AlphaLISA reaction is performed following the vendor's recommended protocol, and the […] are measured using an Envision plate reader (Perkin Elmer).

[3] = target: T1, pseudokinase domain (JH2) of human TYK2 (Homo sapiens, UniProt P29597); assay: TYK2-JH2 Tracer Binding Assay; settings: His-tagged TYK2-JH2 0.200 nM, Tracer 2.00 nM, 30 minutes, TR-FRET; n=1
T1 construct: The pseudokinase domain (JH2) of human JAK (Janus family of cytoplasmic tyrosine kinases) family tyrosine kinase 2 (TYK2); made in house
T1 sequence (P29597 589-875 limits assumed): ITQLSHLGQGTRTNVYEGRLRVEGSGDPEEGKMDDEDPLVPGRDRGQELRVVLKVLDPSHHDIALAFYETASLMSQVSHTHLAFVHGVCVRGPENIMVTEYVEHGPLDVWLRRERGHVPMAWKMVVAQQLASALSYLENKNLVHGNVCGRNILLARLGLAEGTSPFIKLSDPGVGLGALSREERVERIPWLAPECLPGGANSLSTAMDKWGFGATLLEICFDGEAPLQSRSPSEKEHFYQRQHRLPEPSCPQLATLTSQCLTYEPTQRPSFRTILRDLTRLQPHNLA
Source text: The pseudokinase domain (JH2) of human JAK (Janus family of cytoplasmic tyrosine kinases) family tyrosine kinase 2 (TYK2) (Genbank NP_003322) with an N-terminal His6 tag is expressed in baculovirus and purified by HisPur Ni-NTA affinity and Superdex 200 size-exclusion chromatography. The compound prepared in Preparation 11, a conjugate of Alexa Fluor 647 dye (Thermo Fisher Scientific) and a suitable TYK2 JH2 binder, is referred to herein as “the Tracer”. A 3 fold, 10 point serial dilution of compound, Example 1 and Example 2, are prepared in 100% DMSO and 50 nL/well transferred to a Proxiplate-384F white plate (PerkinElmer 6008280) using acoustic liquid handling. Control wells used to determine percent inhibition contained 100% DMSO (50 nL) and either assay buffer containing the Tracer (2.00 nM final concentration) (min, low FRET) or diluted TYK2-JH2 enzyme (0.200 nM final concentration) and the Tracer (2.00 nM final concentration) (max, high FRET). […] After 30 minutes, the plate is counted on a PerkinElmer Envision with the following settings: Excitation (340 nm), Tracer Emission (665 nm) and LanthaScreen Eu-anti-His Antibody Emission (615 nm). The ratio of Tracer Emission (665 nm) over LanthaScreen Eu-anti-His Antibody Emission (615 nm) is determined.

Row | IC50 [1] [nM] | IC50 [2] [nM] | IC50 [3] [nM] | Compound
1 | 38 | 29 | < 0.254 | CCOc1cccc(Nc2cc(NC)n3ncc(C(=O)N[C@@H]4CCN(C)C4=O)c3n2)n1 [Example 1, 5-[(6-Ethoxy-2-pyridyl)amino]-7-(methylamino)-N-[(3R)-1-methyl-2-oxo-pyrrolidin-3-yl]pyrazolo[1,5-a]pyrimidine-3-carboxamide]
2 | 84 | 60 | < 0.254 | CNc1cc(Nc2cc(C)cc(C)n2)nc2c(C(=O)N[C@@H]3CCN(C)C3=O)cnn12 [Example 2, 5-[(4,6-Dimethyl-2-pyridyl)amino]-7-(methylamino)-N-[(3R)-1-methyl-2-oxo-pyrrolidin-3-yl]pyrazolo[1,5-a]pyrimidine-3-carboxamide]
